The record followed here is PMC7582929, “Characterization of Cetacean Proline-Rich Antimicrobial Peptides Displaying Activity against ESKAPE Pathogens” (International Journal of Molecular Sciences, 2020).

In one data set the test system is E. coli BW25113. The class given is cell-based, Escherichia coli. The text has this: (§1) The following microbial reference strains were utilized: Escherichia coli BW25113, E. coli ATCC 25922, E. coli ML35p, Enterococcus faecium ATCC 19434, Staphylococcus aureus ATCC 25923, Klebsiella pneumoniae ATCC 700603, Acinetobacter baumannii ATCC 19606, Pseudomonas aeruginosa ATCC 27853, Stenotrophomonas maltophilia ATCC 13637, Candida albicans ATCC 90029. The ΔsbmA strain of E. coli BW25113 belongs to the KEIO collection and the clinical isolate of Enterobacter agglomerans was kindly provided by Prof. C. Lagatolla from the Microbiology Laboratory of the University of Trieste. All the growth media were purchased from Difco (part of Thermo Fisher Scientific, MA, USA).
(§2) Bacteria were grown in Mueller-Hinton broth (MHB), except E. faecium, which was grown overnight in brain-heart infusion (BHI); E. coli BW25113 ΔsbmA was grown in the presence of 50 μg/mL kanamycin. C. albicans was grown in Sabouraud broth.
(§3) All the strains were grown overnight at 37 °C (except E. agglomerans, S. maltophilia and C. albicans, which were grown at 30 °C), with shaking at 140 rpm. The overnight bacterial cultures were then diluted approximately 1:40 in fresh growth medium and incubated at 37 °C or 30 °C with shaking (140 rpm) until an OD600 of between 0.3 and 0.5 was reached.
(§4) The minimum inhibitory concentration was determined by the broth microdilution method according to the NCCLS protocol. Briefly, an overnight bacterial or fungal culture was diluted in fresh MH or Sabouraud broth, respectively (300 µL O/N culture in 10 mL MHB/Sabouraud) and the culture was let grow at 37 °C or 30 °C to reach OD600 between 0.3 and 0.5. Serial two-fold dilutions of peptides were then performed in culture medium (Sabouraud, MHB or 20% MHB in PBS), to a final volume of 50 µL in the wells of a round bottom microtiter plate (Sarstedt, Milan, Italy), and then the bacterial suspension with a load of 5 × 10^5 CFU/mL was added to the plate, halving the final concentration of bacteria and peptides. The culture was grown at 37 °C or 30 °C and the MIC was determined after 18h by visual inspection as the first clear well. The assessment was performed taking into consideration at least three independent experiments performed in duplicate.

In the next data set the test system is E. faecium ATCC 19434. It counts as cell-based, Enterococcus faecium. The following applies: ATCC 19434, 18 h.
Excerpt: as §1, §2, §3, §4

For data set [1], the system named is bacterial protein synthesis (E. coli extracts). Nature of the data set: In vitro transcription/translation assay (firefly luciferase reporter). The class given is biochemical. The following applies: E. coli lysate, 30 °C, 1 h, increasing peptide concentrations up to 25 µM, n ≥ 3. How it is done:
Several PrAMPs derived from artiodactyl or insect peptides act by interfering with bacterial protein synthesis. To evaluate if the cePrAMPs also targeted this process, in vitro transcription/translation assays were carried out in their presence, assessing the inhibition of the synthesis of a reporter luciferase (Figure 3). […].  Figure 3 Luciferase activity after in vitro transcription/translation reactions in presence of cePrAMPs. E. coli extracts were incubated with the firefly luciferase reporter DNA in the presence of increasing concentrations of cePrAMPs. Results are presented as the percentage with respect to control samples treated with only RNase-free water. Average and standard deviation of at least three independent experiments (n ≥ 3).
Reactions were set up using lysates of the RTS 100 E. coli HY kit from Biotechrabbit (Berlin, Germany) according to the user manual. Briefly, 1 μL of peptide solution was added to each reaction to reach the desired final concentration in a final volume of 6 μL. […] The presence of luciferase reporter protein was quantified by measuring its luminescence using a Infinite M200 plate reader (Tecan, Männedorf, Switzerland). The relative luminescence values for all the assays were calculated as a percentage of the positive control (reactions with nuclease-free water instead of the peptides) using three independent replicates. […]

Data set [2] in a line: Resuspension of the peptides in Mueller-Hinton broth. The class given is physicochemical. The settings on record: 100% Mueller-Hinton broth. An excerpt:
. To solve this issue and determine how it affected antimicrobial activity, bacterial susceptibility tests were repeated with most strains using 20% Mueller-Hinton broth. With some exceptions, these four peptides did indeed increase their activity in this medium, as did the others, in such a manner that the relative differences remained substantially unchanged (Table S1). Therefore, sequence-activity considerations remain valid.

Data set [3] has as its system S. maltophilia ATCC 13637. It counts as cell-based, Stenotrophomonas maltophilia. The following applies: ATCC 13637, 18 h.
Excerpt: as §1, §2, §3, §4

For data set [4], the system named is K. pneumoniae ATCC 700603. It counts as cell-based, Klebsiella pneumoniae. The following applies: 20% Mueller-Hinton broth in PBS, median of n ≥ 3.
Excerpt: as §1, §2, §3
(§5) The minimum inhibitory concentration was determined by the broth microdilution method according to the NCCLS protocol. […]

Another data set deals with C. albicans ATCC 90029. It counts as cell-based, Candida albicans. The settings on record: ATCC 90029, 18 h.
Excerpt: as §1, §2, §3, §4

The test system of another data set is P. aeruginosa ATCC 27853. The class given is cell-based, Pseudomonas aeruginosa. The following applies: 20% Mueller-Hinton broth in PBS, median of n ≥ 3.
Excerpt: as §1, §2, §3, §5

For data set [5], the system named is E. agglomerans—clinical isolate. It counts as cell-based, Enterobacter agglomerans. The following applies: 18 h.
Excerpt: as §1, §2, §3, §4

For a further data set, the system named is E. coli BW25113—Δ SbmA. The class given is cell-based, Escherichia coli. The settings on record: E. coli BW25113 ΔSbmA, median of n ≥ 3.
Excerpt: as §1, §2, §3, §4

The test system of data set [6] is panel of reference pathogenic bacterial and fungal strains. The class given is cell-based.
Excerpt: as §1, §2, §3, §4

Data set [7] relates to human red blood cells (hRBCs). It counts as cell-based. How it is done: Figure 4 Evaluation of in vitro toxicity of CePrAMPs. (A) Hemolysis assay against human red blood cells (hRBCs), re-suspended in PBS at 4% (v/v) concentrations, measured as the absorbance of released hemoglobin (540 nm) after 1 h of exposure to the peptides. Results are reported as percentages with respect to hRBCs treated for 1 h with 1% Triton X-100 (considered as 100%), and are the average of three independent experiments (n = 3); (B,C) Evaluation via MTT assay of the viability of the indicated eukaryotic cell lines after exposure to the peptides. HaCat (B) or MEC-1 (C) cells were incubated with the different peptides at increasing concentrations for 21 h (B) or 20 h (C), before treating cells with MTT. Results are reported as the percentage of viable cells with respect to the untreated control, and are the average of three independent experiments (n = 3) (* = p < 0.05; ** = p < 0.01).
The lytic potential towards eukaryotic cell membranes was assessed by measuring the release of hemoglobin from human red blood cells (hRBCs) after exposure to the peptides. hRBCs were collected from single donor- human whole blood (Cambridge Bioscience, UK), being isolated by centrifugation, washed three times with PBS, and resuspended to either 8% or 0.8% (v/v) in PBS. […]

The subject of another data set is S. aureus ATCC 25923. It counts as cell-based, Staphylococcus aureus. The settings on record: ATCC 25923, 18 h.
Excerpt: as §1, §2, §3, §5

Where [8] appears, read: 20% Mueller-Hinton broth in PBS.
Where [9] appears, read: broth microdilution (NCCLS), Mueller-Hinton broth, 37 °C, 18 h, visual.
Where [10] appears, read: against P. aeruginosa and E. faecium.
The mark [11] stands for this setting: against all the Gram-negative pathogen and C. albicans.

Like-named read-outs stand apart in the source and are kept apart here. Ends that are not written are not given here.

The term MIC denotes the smallest concentration in the dilution series that meets the test's criterion for growth inhibition. Low values mean inhibition by little substance, high ones a need for much substance.

With RRIRFPFPPFPWQWPPAGF [Neo1], the minimum inhibitory concentration (MIC) is 24 µM in the data set with E. coli BW25113 (BW25113, 18 h); 16 µM with E. coli BW25113 (E. coli BW25113, 20% Mueller-Hinton broth in PBS, median of n ≥ 3); over 64 µM in the data set with E. faecium ATCC 19434; 24 µM in data set [3]; over 64 µM in [4]; 32 µM against C. albicans ATCC 90029. In addition, the minimal inhibitory concentration (MIC) (in the data set on P. aeruginosa ATCC 27853; in [5]) was 64 µM throughout. Besides, the “inhibition of in vitro transcription/translation (luciferase activity)” value in data set [1] is “almost no inhibitory activity on protein synthesis”. In [2], the “resuspension in growth medium” value was “difficult to resuspend in 100% Mueller-Hinton broth”.
For RRIRIRPPRLPRPRPRPWFPPRFPIPRIPGKR [Lip1], the minimum inhibitory concentration (MIC) in the data set with E. coli BW25113—Δ SbmA (setting [8]) was 0.5 µM; against E. coli BW25113—Δ SbmA (setting [9]) it was 1.5 µM; against E. faecium ATCC 19434, 4 µM; in [6] (setting [10]), 2 to 4 µM; in [6] (against P. aeruginosa and E. faecium, listed as Lip), at most 4 µM; in data set [6] (setting [11]), at most 2 µM. For the same sequence, the MIC was found to be 0.5 µM in [3], 2 µM with C. albicans ATCC 90029 and 0.5 µM in data set [5].
In the case of RRIPFWPPNLPGPRRPPWFLPDFRIPRIPRKR [Orc1], the MIC is 2 µM in the data set on E. coli BW25113—Δ SbmA (setting [9]); 16 µM with E. faecium ATCC 19434; 2 µM in data set [3]; 4 µM in the data set on C. albicans ATCC 90029; 8 µM in data set [5].
Take RRIPFWPIPLRWQWPPPWFPPSFPIPRISRKR [Del1]: the MIC against E. coli BW25113—Δ SbmA (setting [8]) is reported as 1 µM; against E. coli BW25113—Δ SbmA (setting [9]), 8 µM; against E. faecium ATCC 19434, 4 µM; in [3], 4 µM; against C. albicans ATCC 90029, 8 µM; in data set [5], 8 µM. Moreover, the hemolytic effect result in [7] is reported as “relatively high hemolytic effect”.
For “RRIRPRPPRLPRPRPRPLPFPRPGPRPIPRPLPFP [Bac7(1-35), reference compound]”, the MIC is recorded as 2 µM in the data set with E. coli BW25113—Δ SbmA (setting [8]); 8 µM in the data set with E. coli BW25113—Δ SbmA (setting [9]); 64 µM with E. faecium ATCC 19434; 1 µM in data set [3]; 2 µM against C. albicans ATCC 90029; over 64 µM in the data set with S. aureus ATCC 25923. The MIC in data set [5] was determined as 0.5 µM.
RRIRFRPPRLPRPRPRPWIPPRFPFPRIPGKR [Bal1]: the MIC in the data set with E. coli BW25113—Δ SbmA (setting [8]) was 0.5 µM; against E. coli BW25113—Δ SbmA (setting [9]), 2 µM; against E. faecium ATCC 19434 it was 4 µM; in data set [6] (setting [10]), 2 to 4 µM; in data set [6] (against P. aeruginosa and E. faecium, listed as Bal), at most 4 µM; in data set [6] (setting [11]), at most 2 µM. Besides, the minimum inhibitory concentration (MIC) is recorded as 1 µM in data set [3], 1.5 µM with C. albicans ATCC 90029 and 0.5 µM in [5].
